From patent US20230219963A1, “PYRROLO[2,3-D]PYRIMIDINE DERIVATIVES” (Pfizer Inc., priority 2020, published 2023)

How the values were obtained:
[1] = test system: TSLP induced pSTAT5; test: TSLP-induced pSTAT5 in human whole blood (CD3+ cells); format: cell-based; settings: JAK1/JAK2, read-out: TSLP induced pSTAT5, cellular potency IC50
Method: Human whole blood was collected from healthy donors via vein puncture into Vacutainer collection tubes containing sodium heparin in accordance with Pfizer protocols (Protocol No. GOHW RDP-01) approved by the Shulman Institutional Review Board. Blood was warmed to 37° C. priorto use. Human whole blood was aliquoted (90 μL/well) in 96-well, deep-well, V-bottom plates and treated with compounds (5 μL/well) at different concentrations up to 60 μM (0.2% DMSO final) at 37° C. for 60 minutes. This was followed by a challenge with IFNα (5000 U/mL), IFNγ (100 ng/mL), IL-6 (50 ng/mL), IL-10 (30 ng/mL), IL-12 (30 ng/mL), IL-15 (30 ng/mL), IL-21 (50 ng/mL), IL-23 (25 ng/mL), IL-27 (1000 ng/mL), EPO (2 U/mL), TSLP (50 ng/mL) or PBS and incubated for 15 minutes. Anti-cell surface antibodies were added 15 minutes prior to cytokine stimulation; anti-CD3-BV421 (0.5 μL/well) to IL-6-treated and TSLP-treated samples and anti-CD14-BV421 (0.5 μL/well) to IFNγ-treated samples. Samples were treated with warm 1×Lyse/Fix buffer (700 μL/well) to terminate activation and further incubated at 37° C. for 20 minutes to lyse red blood cells. Plates were centrifuged at 300×g for 5 minutes, supernatant was aspirated, and cells were washed with 800 μL/well of staining buffer (D-PBS containing 0.1% FBS and 0.01% sodium azide). Washed cell pellets were resuspended in 350 μL/well of prechilled 90% methanol and incubated at 4° C. for 30 minutes. After the removal of 90% methanol, cells were washed once with staining buffer. […]
After overnight incubation at 4° C., anti-pSTAT stained samples were transferred into 96-well polypropylene U-bottom plates and flow cytometric analysis was performed on a LSR Fortessa™ equipped with a HTS plate loader. […] Background fluorescence was defined using unstimulated cells and a gate was placed at the foot of the peak to include ˜0.5% gated population. […]

[2] = test system: IL-31 induced pSTAT3; test: IL-31-induced pSTAT3 in IFNγ-primed THP-1 cells; format: cell-based; settings: Homo sapiens, JAK1/JAK2, read-out: IL-31 induced pSTAT3, cellular potency IC50
Method: THP-1 cells were maintained in RPMI 1640 medium containing 10% FBS, 50 μM 2 mercaptoethanol, 50 U/mL penicillin, 50 µg/mL streptomycin and 2 mM L-glutamine. THP 1 cells were treated with IFNγ (20 ng/mL) for 18 hours. IFNγ primed THP-1 cells were resuspended in fresh RPMI 1640 medium, treated with compounds (0.0003 to 20 μM) for 60 minutes, followed by stimulation with IL-31 (1 μg/mL) for additional 10 minutes. Cells were then fixed by 2% paraformaldehyde and permeabilized by 90% methanol. Fixed and permeabilized cells were stained with AlexaFluor647™ labeled anti-pSTAT3 antibody (1 to 150 dilution).
After overnight incubation at 4° C., anti-pSTAT stained samples were transferred into 96-well polypropylene U-bottom plates and flow cytometric analysis was performed on a LSR Fortessa™ equipped with a HTS plate loader. For human whole blood samples, lymphocyte population was gated for pSTAT histogram analysis for IFNα, IL-10, IL-12, IL-15, IL-21, IL-23, and IL-27-treated samples; CD14^+ cells for IFNγ-treated samples; CD3^+ cells for IL-6 and TSLP-treated samples; all events (entire populations) for EPO-treated samples. Entire populations of keratinocytes and THP-1 cells were gated for the IL-4, IL-13, IL-22 and IL-31 assays. Background fluorescence was defined using unstimulated cells and a gate was placed at the foot of the peak to include ˜0.5% gated population. Histogram statistical analysis was performed using FACSDiva version 8.0. Relative fluorescence unit, which measures the level of pSTAT, was calculated by multiplying the percent positive population and its mean fluorescence. Inhibition curves and half maximal inhibitory concentration (IC50) values were determined using Prism™ software (Version 8) or the Activity Base data analysis software (ID Business Solutions).

Compound	IC50 [1] [µM]	IC50 [2] [µM]
C[C@H](O)CS(=O)(=O)N[C@H]1C[C@@H](N(C)c2ncnc3[nH]ccc23)C1 (single isomer, unassigned) [IA (M2)]	0.271	0.056
CN(c1ncnc2[nH]ccc12)[C@H]1C[C@@H](NS(=O)(=O)CCCO)C1 [IB (M1), 3-Hydroxy-N-(cis-3-(methyl(7H-pyrrolo[2,3-d]pyrimidin-4-yl)amino)cyclobutyl)propane-1-sulfonamide]	0.785	0.0796
